The text below walks through data of ChEMBL document CHEMBL1154997, “Inhibitors of dipeptidyl peptidase 8 and dipeptidyl peptidase 9. Part 1: identification of dipeptide derived leads” (Bioorg Med Chem Lett, 2008).

Targets include Dipeptidyl peptidase 2 (Homo sapiens, UniProt Q9UHL4); Dipeptidyl peptidase 4 (Homo sapiens, UniProt P27487); Dipeptidyl peptidase 8 (Homo sapiens, UniProt Q6V1X1); Dipeptidyl peptidase 9 (Homo sapiens, UniProt Q86TI2).

Dipeptidyl peptidase 8, sequence (Q6V1X1 whole entry): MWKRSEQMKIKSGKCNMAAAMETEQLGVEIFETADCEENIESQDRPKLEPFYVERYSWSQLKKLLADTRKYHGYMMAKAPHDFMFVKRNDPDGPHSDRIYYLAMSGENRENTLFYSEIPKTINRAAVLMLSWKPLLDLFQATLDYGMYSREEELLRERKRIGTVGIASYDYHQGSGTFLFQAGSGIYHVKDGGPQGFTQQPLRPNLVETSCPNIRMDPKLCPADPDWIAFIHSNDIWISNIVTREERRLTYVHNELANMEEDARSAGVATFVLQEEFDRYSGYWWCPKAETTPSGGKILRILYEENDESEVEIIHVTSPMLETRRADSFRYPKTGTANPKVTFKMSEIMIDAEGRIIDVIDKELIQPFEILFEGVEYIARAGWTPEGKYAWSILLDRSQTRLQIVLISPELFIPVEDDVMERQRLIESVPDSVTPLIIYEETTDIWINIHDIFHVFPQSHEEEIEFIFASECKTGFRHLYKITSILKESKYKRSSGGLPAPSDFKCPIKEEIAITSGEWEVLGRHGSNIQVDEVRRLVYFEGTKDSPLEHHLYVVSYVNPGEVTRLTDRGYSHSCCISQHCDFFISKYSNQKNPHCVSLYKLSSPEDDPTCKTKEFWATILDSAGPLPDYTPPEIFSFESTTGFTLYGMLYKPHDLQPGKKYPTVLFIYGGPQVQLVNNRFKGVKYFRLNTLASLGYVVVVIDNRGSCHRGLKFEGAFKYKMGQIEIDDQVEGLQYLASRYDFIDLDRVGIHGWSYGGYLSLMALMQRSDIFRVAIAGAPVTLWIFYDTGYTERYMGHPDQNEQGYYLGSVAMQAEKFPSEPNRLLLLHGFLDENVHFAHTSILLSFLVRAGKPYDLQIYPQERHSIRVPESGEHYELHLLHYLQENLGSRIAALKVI
Dipeptidyl peptidase 4, sequence (P27487 whole entry): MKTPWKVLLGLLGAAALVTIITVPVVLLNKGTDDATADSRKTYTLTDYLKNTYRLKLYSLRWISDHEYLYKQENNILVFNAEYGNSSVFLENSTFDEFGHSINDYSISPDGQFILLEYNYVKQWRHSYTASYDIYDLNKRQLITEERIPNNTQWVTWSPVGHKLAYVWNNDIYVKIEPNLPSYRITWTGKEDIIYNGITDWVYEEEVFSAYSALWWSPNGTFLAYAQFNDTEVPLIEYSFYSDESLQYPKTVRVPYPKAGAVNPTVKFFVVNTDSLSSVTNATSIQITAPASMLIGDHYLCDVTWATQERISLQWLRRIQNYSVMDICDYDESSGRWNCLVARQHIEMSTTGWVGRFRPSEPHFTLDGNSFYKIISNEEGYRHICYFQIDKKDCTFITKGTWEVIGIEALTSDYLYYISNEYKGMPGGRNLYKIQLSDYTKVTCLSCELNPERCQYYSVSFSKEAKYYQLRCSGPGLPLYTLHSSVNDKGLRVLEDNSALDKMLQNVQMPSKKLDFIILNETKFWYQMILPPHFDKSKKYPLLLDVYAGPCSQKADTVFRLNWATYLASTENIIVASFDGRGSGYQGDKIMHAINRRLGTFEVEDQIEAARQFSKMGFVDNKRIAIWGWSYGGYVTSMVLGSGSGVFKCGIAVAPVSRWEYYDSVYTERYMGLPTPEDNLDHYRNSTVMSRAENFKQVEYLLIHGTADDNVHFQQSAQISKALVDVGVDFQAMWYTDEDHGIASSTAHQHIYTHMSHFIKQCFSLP
Dipeptidyl peptidase 9, sequence (Q86TI2 whole entry): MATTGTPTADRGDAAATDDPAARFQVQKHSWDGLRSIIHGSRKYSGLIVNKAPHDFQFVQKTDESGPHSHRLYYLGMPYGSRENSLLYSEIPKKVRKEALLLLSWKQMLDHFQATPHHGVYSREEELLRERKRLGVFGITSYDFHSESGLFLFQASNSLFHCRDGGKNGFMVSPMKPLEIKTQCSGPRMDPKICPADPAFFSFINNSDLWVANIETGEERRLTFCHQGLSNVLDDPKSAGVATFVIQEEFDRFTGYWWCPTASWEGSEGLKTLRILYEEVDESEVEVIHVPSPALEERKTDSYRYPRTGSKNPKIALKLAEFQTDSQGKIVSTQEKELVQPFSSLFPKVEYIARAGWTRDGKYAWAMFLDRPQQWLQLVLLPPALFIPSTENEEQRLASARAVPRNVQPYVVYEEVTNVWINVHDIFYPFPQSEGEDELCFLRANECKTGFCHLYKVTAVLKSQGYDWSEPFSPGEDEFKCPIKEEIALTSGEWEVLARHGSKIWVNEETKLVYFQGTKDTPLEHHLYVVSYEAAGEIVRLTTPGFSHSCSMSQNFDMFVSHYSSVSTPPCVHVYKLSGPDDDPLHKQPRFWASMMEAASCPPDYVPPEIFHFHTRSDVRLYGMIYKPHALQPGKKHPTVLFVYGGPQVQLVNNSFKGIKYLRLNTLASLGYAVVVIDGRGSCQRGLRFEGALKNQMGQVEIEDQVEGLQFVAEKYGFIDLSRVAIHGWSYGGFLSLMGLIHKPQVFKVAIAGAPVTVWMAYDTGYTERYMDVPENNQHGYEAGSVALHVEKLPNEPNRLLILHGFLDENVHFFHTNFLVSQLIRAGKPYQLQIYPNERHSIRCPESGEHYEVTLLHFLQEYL

As for `CC(C)[C@H](N)C(=O)N1CCCC1`, half-maximal inhibition against Dipeptidyl peptidase 2 (IC50) was put at 153 µM.

Take `CCCC[C@H](N)C(=O)N1CCCC1`: the IC50 is 15 µM against Dipeptidyl peptidase 4 and 60 µM at Dipeptidyl peptidase 2.

In the case of `NC(=O)C[C@H](N)C(=O)N1CCCC1`, the IC50 is 188 µM at Dipeptidyl peptidase 4, 152 µM at Dipeptidyl peptidase 2 and > 500 µM against Dipeptidyl peptidase 8.

Turning to `C[C@H](N)C(=O)N1CCCC1`, the IC50 on Dipeptidyl peptidase 8 amounted to 411 µM.

Regarding `CC[C@H](C)[C@H](N)C(=O)N1CCCCCC1`, the IC50 at Dipeptidyl peptidase 9 is > 100 µM; against Dipeptidyl peptidase 4 it was 374 µM; at Dipeptidyl peptidase 2, 228 µM; against Dipeptidyl peptidase 8 it was 612 µM.

Take `NCCCC[C@H](N)C(=O)N1CCCc2ccccc21`: the concentration for half-maximal inhibition (IC50) on Dipeptidyl peptidase 9 was > 100 µM; at Dipeptidyl peptidase 4, > 1000 µM; on Dipeptidyl peptidase 2, 393 µM; against Dipeptidyl peptidase 8 it was 312 µM.

Turning to `N[C@@H](Cc1c[nH]c2ccccc12)C(=O)N1CCCC1`, the half-maximal inhibitory concentration (IC50) is > 100 µM against Dipeptidyl peptidase 9, 286 µM against Dipeptidyl peptidase 4, 49 µM against Dipeptidyl peptidase 2 and 242 µM on Dipeptidyl peptidase 8.

On to `CC[C@H](C)[C@H](N)C(=O)N1CC=CCC1`, for which the figures for the IC50 on Dipeptidyl peptidase 9, against Dipeptidyl peptidase 4 and on Dipeptidyl peptidase 2 were > 50 µM, 52 µM and 52 µM, respectively.

As to `CC(C)C[C@H](N)C(=O)N1CCCC1`, the results for the IC50 on Dipeptidyl peptidase 4 and against Dipeptidyl peptidase 2 were 24 µM and 122 µM, respectively.

`N[C@@H](Cc1ccccc1)C(=O)N1CCCC1`: the IC50 against Dipeptidyl peptidase 4 was found to be 21 µM; at Dipeptidyl peptidase 2 it was 79 µM; against Dipeptidyl peptidase 8, 115 µM.

`NCCCC[C@H](N)C(=O)N1CCSC1`: the values for the IC50 against Dipeptidyl peptidase 4 and against Dipeptidyl peptidase 2 were 23 µM and 2.9 µM, respectively.

With `N[C@@H](CCC(=O)O)C(=O)N1CCCC1`, the IC50 was > 100 µM against Dipeptidyl peptidase 9, > 1000 µM on Dipeptidyl peptidase 4, > 1000 µM against Dipeptidyl peptidase 2 and > 1000 µM against Dipeptidyl peptidase 8.

`[N-]=[N+]=NC1CCN(C(=O)[C@@H](N)CCCCN)C1` (stereo partly specified) registered an IC50 at Dipeptidyl peptidase 2 of 4.9 µM.

Regarding `CC[C@H](C)[C@H](N)C(=O)NC1CCCC1`, the IC50 against Dipeptidyl peptidase 9 was > 100 µM; on Dipeptidyl peptidase 4 it was > 1000 µM; on Dipeptidyl peptidase 2, > 100 µM; at Dipeptidyl peptidase 8, > 1000 µM.

With `N[C@@H](CS)C(=O)N1CCCC1`, the IC50 against Dipeptidyl peptidase 4 came out at 37 µM; against Dipeptidyl peptidase 2, 19 µM.

As to `C[C@@H](O)[C@H](N)C(=O)N1CCCC1`, the IC50 at Dipeptidyl peptidase 4 was 98 µM; at Dipeptidyl peptidase 2 it was 230 µM.

As for `N[C@@H](CO)C(=O)N1CCCC1`, the half-maximal inhibitory concentration (IC50) on Dipeptidyl peptidase 4 was 190 µM; against Dipeptidyl peptidase 2, 65 µM; against Dipeptidyl peptidase 8, > 500 µM.

Consider `N[C@@H](CCCCNC(=O)OCc1ccccc1)C(=O)N1CCCC1`, for which the values for the 50% inhibitory concentration (IC50) on Dipeptidyl peptidase 4 and on Dipeptidyl peptidase 2 were 15.6 µM and 5.7 µM, respectively.

As to `NCCC[C@H](N)C(=O)N1CCCC1`, the IC50 on Dipeptidyl peptidase 4 worked out at 118 µM; on Dipeptidyl peptidase 2, 9.8 µM.

As for `N[C@@H](CCCNC(=O)OCc1ccccc1)C(=O)N1CCCC1`, the figures for the IC50 at Dipeptidyl peptidase 4 and against Dipeptidyl peptidase 2 were 9.7 µM and 3.7 µM, respectively.

Regarding `CC[C@H](C)[C@H](N)C(=O)N1CCC(N=[N+]=[N-])C1` (stereo partly specified), the IC50 against Dipeptidyl peptidase 4 worked out at 107 µM; against Dipeptidyl peptidase 2, 43 µM.

`CC[C@H](C)[C@H](N)C(=O)N1CCC(F)C1` (stereo partly specified): the IC50 at Dipeptidyl peptidase 4 amounted to 3.5 µM; against Dipeptidyl peptidase 2, 111 µM.

For `CC[C@H](C)[C@H](N)C(=O)N1CCC(Cl)C1` (stereo partly specified), the figures for the IC50 against Dipeptidyl peptidase 4 and against Dipeptidyl peptidase 2 were 94 µM and 30 µM, respectively.

For `N[C@@H](CCCCNC(=O)OCc1ccccc1)C(=O)N1CCSC1`, the IC50 on Dipeptidyl peptidase 4 stood at 3.7 µM; against Dipeptidyl peptidase 2, 1.02 µM.

On to `N=C(N)NCCC[C@H](N)C(=O)N1CCCC1`, for which the IC50 came to 12.7 µM against Dipeptidyl peptidase 4 and 3.1 µM at Dipeptidyl peptidase 2.

As to `N=C(NCCC[C@H](NC(=O)OCc1ccccc1)C(=O)N1CCCC1)NC(=O)OCc1ccccc1`, the 50% inhibitory concentration (IC50) worked out at 16.8 µM at Dipeptidyl peptidase 4 and 0.86 µM against Dipeptidyl peptidase 2.

For `CC[C@H](C)[C@H](N)C(=O)N1CC=CC1`, the IC50 at Dipeptidyl peptidase 4 was determined as 15 µM; against Dipeptidyl peptidase 2, 288 µM.

With `CC[C@H](C)[C@H](N)C(=O)N1CCC1`, the IC50 was > 100 µM on Dipeptidyl peptidase 9, 50.4 µM at Dipeptidyl peptidase 4, 730 µM at Dipeptidyl peptidase 2 and 127 µM on Dipeptidyl peptidase 8.

For `NCCCC[C@H](N)C(=O)N1CCC(O)C1` (stereo partly specified), the IC50 is 500 µM against Dipeptidyl peptidase 4, 48 µM on Dipeptidyl peptidase 2 and 139 µM against Dipeptidyl peptidase 8.

`N#C[C@@H]1CCCN1C(=O)[C@@H](N)CCCCN`: the concentration for half-maximal inhibition (IC50) at Dipeptidyl peptidase 2 was determined as 0.577 µM.

For the compound `N#C[C@@H]1CCCCN1C(=O)[C@@H](N)CCCCN`, the IC50 on Dipeptidyl peptidase 4 turned out to be 51 µM; at Dipeptidyl peptidase 2, 1.5 µM.

On to `N#C[C@@H]1CCCN1C(=O)[C@@H](N)CCCCNC(=O)OCc1ccccc1`, for which the IC50 is 0.035 µM against Dipeptidyl peptidase 4 and 0.84 µM at Dipeptidyl peptidase 2.

As to `N#C[C@@H]1C[C@H](N=[N+]=[N-])CN1C(=O)[C@@H](N)CCCCN`, the IC50 on Dipeptidyl peptidase 4 was 2.2 µM; at Dipeptidyl peptidase 2, 0.31 µM.

As for `N#C[C@@H]1C[C@H](N=[N+]=[N-])CN1C(=O)[C@@H](N)CCCCNC(=O)OCc1ccccc1`, the IC50 against Dipeptidyl peptidase 4 was determined as 0.53 µM; against Dipeptidyl peptidase 2 it was 0.35 µM.

With `N#C[C@@H]1C[C@H](N=[N+]=[N-])CN1C(=O)[C@@H](N)CCCCNc1ccc2ccccc2c1`, the values for the IC50 against Dipeptidyl peptidase 4 and at Dipeptidyl peptidase 2 were 0.56 µM and 0.034 µM, respectively.

`N#C[C@@H]1C[C@H](N=[N+]=[N-])CN1C(=O)[C@@H](N)CCCCN(c1ccc2ccccc2c1)c1ccc2ccccc2c1` displayed an IC50 against Dipeptidyl peptidase 2 of 0.068 µM.

For the compound `N[C@@H](CC(=O)O)C(=O)N1CCCC1`, on Dipeptidyl peptidase 8, the IC50 is > 1000 µM.

As for `NCCCC[C@H](N)C(=O)N1CCCC1`, the IC50 against Dipeptidyl peptidase 4 stood at 39 µM; against Dipeptidyl peptidase 2, 9.9 µM.

Regarding `N[C@@H](Cc1c[nH]cn1)C(=O)N1CCCC1`, the half-maximal inhibitory concentration (IC50) against Dipeptidyl peptidase 9 was > 100 µM; against Dipeptidyl peptidase 4 it was 23.1 µM; against Dipeptidyl peptidase 2 it was 1.2 µM; against Dipeptidyl peptidase 8 it was > 500 µM.

For `CC[C@H](C)[C@H](N)C(=O)N1CCC(O)C1` (stereo partly specified), the IC50 against Dipeptidyl peptidase 9 was > 100 µM; against Dipeptidyl peptidase 4, 93 µM; against Dipeptidyl peptidase 2, 299 µM; against Dipeptidyl peptidase 8, 130 µM.

Consider `CC(C)[C@H](N)C(=O)N1CSC[C@H]1B(O)O`, for which inhibition on Dipeptidyl peptidase 2 was half-maximal at 0.086 µM (IC50).

With `N[C@@H](Cc1ccc(O)cc1)C(=O)N1CCCC1`, the IC50 amounted to 43.5 µM against Dipeptidyl peptidase 4 and 15.7 µM at Dipeptidyl peptidase 2.

Regarding `N[C@@H](CCCCNC(=O)OCc1ccccc1)C(=O)N1CCCc2ccccc21`, the IC50 is > 100 µM against Dipeptidyl peptidase 9, > 1000 µM at Dipeptidyl peptidase 4, 390 µM against Dipeptidyl peptidase 2 and > 500 µM against Dipeptidyl peptidase 8.

For the compound `N#C[C@@H]1C[C@H](N=[N+]=[N-])CN1C(=O)[C@@H](N)CCCCN(c1cccc2ccccc12)c1cccc2ccccc12`, the IC50 on Dipeptidyl peptidase 4 came out at 2.5 µM; on Dipeptidyl peptidase 2 it was 0.025 µM.

For the compound `CC[C@H](C)[C@H](N)C(=O)N1CCCCC1`, the IC50 amounted to 67 µM against Dipeptidyl peptidase 4 and 59 µM against Dipeptidyl peptidase 2.

Take `NCC(=O)N1CCCC1`: the IC50 against Dipeptidyl peptidase 9 and on Dipeptidyl peptidase 8 was > 1000 µM in each case.

On Dipeptidyl peptidase 9, `N[C@@H](CCNCc1ccc(Cl)cc1)C(=O)N1CCCCC1` yielded a concentration for half-maximal inhibition (IC50) of 76.6 µM. Moreover, at Dipeptidyl peptidase 2, the IC50 is < 0.0005 µM and the Ki stood at 0.082 nM.
